Results: PubChem BioAssay (NCI)
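All cell lines were grown in 96-well plates and treated with compound for 48 hours. GI50 marks 50% less growth. TGI: total growth inhibition.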

Tests used:
Test in all cases: NCI anticancer screen, dose series, 48 h
A549 NSCLC = system: A549 NSCLC
ACHN renal = system: ACHN renal
HOP-62 NSCLC = system: HOP-62 NSCLC
MDA-MB-231 breast = system: MDA-MB-231 breast
SF-268 CNS = system: SF-268 CNS
SK-MEL-2 melanoma = system: SK-MEL-2 melanoma
SN12C renal = system: SN12C renal
SNB-19 CNS = system: SNB-19 CNS
SR leukemia = system: SR leukemia
SW-620 colon = system: SW-620 colon

| SMILES | TGI (A549 NSCLC) [µM] | TGI (ACHN renal) [µM] | TGI (HOP-62 NSCLC) [µM] | TGI (MDA-MB-231 breast) [µM] | TGI (SF-268 CNS) [µM] | TGI (SK-MEL-2 melanoma) [µM] | TGI (SN12C renal) [µM] | TGI (SNB-19 CNS) [µM] | TGI (SR leukemia) [µM] | TGI (SW-620 colon) [µM] | GI50 (A549 NSCLC) [µM] | GI50 (ACHN renal) [µM] | GI50 (HOP-62 NSCLC) [µM] | GI50 (MDA-MB-231 breast) [µM] | GI50 (SF-268 CNS) [µM] | GI50 (SK-MEL-2 melanoma) [µM] | GI50 (SN12C renal) [µM] | GI50 (SNB-19 CNS) [µM] | GI50 (SR leukemia) [µM] | GI50 (SW-620 colon) [µM] |
| --- | --- | --- | --- | --- | --- | --- | --- | --- | --- | --- | --- | --- | --- | --- | --- | --- | --- | --- | --- | --- |
| CSC(SC)(C(=O)O)c1cc(-c2c(Cl)cccc2Cl)no1 | > 100 | > 100 | > 100 | > 100 | > 100 | > 100 | > 100 | > 100 | > 100 | > 100 | – | – | – | – | – | – | – | – | – | – |
| Cc1cn(C2CC(OC(=O)c3ccc(Cl)cc3)C(COC(=O)c3ccc(Cl)cc3)O2)c(=O)[nH]c1=O (stereo not drawn) | > 100 | > 100 | > 100 | – | > 100 | > 100 | > 100 | > 100 | > 100 | > 100 | – | – | – | – | – | – | – | – | – | – |
| CC1(C)N=C(N)N=C(N)N1c1ccc(CCC(=O)Nc2ccc(S(=O)(=O)F)cc2)c(Cl)c1 | > 100 | > 100 | > 100 | > 100 | > 100 | > 100 | > 100 | > 100 | > 100 | > 100 | 0.517 | 5.37 | 1.86 | > 64.9 | 0.507 | 36.1 | 0.487 | 5.22 | 0.179 | 0.144 |
| CN(C)C/C=C/C(=O)Nc1ccc(C(=O)N[C@@]2(C)CCC[C@@H](Nc3ncc(Cl)c(-c4c[nH]c5ccccc45)n3)C2)nc1 | – | 0.741 | – | 1.22 | – | 0.0511 | – | 1.07 | 1.09 | 0.36 | – | < 0.0108 | – | 0.0145 | – | 0.0129 | – | 0.0163 | < 0.01 | < 0.0106 |
| COc1cc(C2c3cc4c(cc3OC(C)(N3CCCC3)C2C)OCO4)cc(OC)c1OC (stereo not drawn) | > 100 | > 79.9 | 66.8 | 2.42 | > 92.9 | 52.1 | 30.8 | > 100 | 9.62 | > 100 | – | – | – | – | – | – | – | – | – | – |
| O=S(=O)(C1=CC(S(=O)(=O)c2ccccc2)CN(Cc2ccccc2)C1c1cccc2ccccc12)c1ccccc1 (stereo not drawn) | > 69 | > 69 | > 69 | – | > 69 | > 69 | > 69 | > 69 | – | > 69 | – | – | – | – | – | – | – | – | – | – |
| Cc1cc(Cl)ccc1OCC(=O)Nc1nc2c(Cl)cccc2s1 | 42 | > 100 | 55.1 | 91.9 | > 100 | > 100 | > 100 | 72 | – | > 100 | 16.7 | 43.3 | 19.6 | 16.2 | 28.8 | > 100 | 39.2 | 31.2 | – | > 100 |
| Cc1ccc(S(=O)(=O)N/N=C2\CCCCC23CCC(=O)NC3)cc1 (stereo not drawn) | > 100 | > 100 | > 100 | – | > 100 | > 100 | > 100 | > 100 | > 100 | > 100 | – | – | – | – | – | – | – | – | – | – |
| O=C(Nc1ccc(C(F)(F)F)cc1[N+](=O)[O-])C(=O)C1NC(=S)NC1=O (stereo not drawn) | > 100 | > 100 | > 100 | – | > 100 | > 100 | 5.05 | > 100 | > 100 | > 100 | – | – | – | – | – | – | – | – | – | – |
| COc1ccc(NC(=O)CC/C(CC(=O)c2ccco2)=N/NC(=O)C(N)=O)cc1 | > 100 | > 100 | > 100 | – | > 100 | > 100 | > 100 | > 100 | – | > 100 | – | – | – | – | – | – | – | – | – | – |
| CCN1CCCc2cc3c(C(F)(F)F)cc(=O)oc3cc21 | > 100 | > 100 | > 100 | > 100 | > 100 | > 100 | > 100 | > 100 | – | > 100 | – | – | – | – | – | – | – | – | – | – |
| CC(=O)Oc1c(C)c(-c2ccccc2)c(C)c(-c2ccccc2)c1C(=S)c1ccccc1 | > 100 | > 100 | > 100 | – | > 100 | > 100 | > 100 | > 100 | > 100 | – | – | – | – | – | – | – | – | – | – | – |
| COc1ccc([C@@]2(O)c3c(ccc(O)c3OC)[C@H]2OC)c(OC)c1 | > 100 | > 100 | > 100 | – | > 100 | > 100 | > 100 | > 100 | > 100 | > 100 | – | – | – | – | – | – | – | – | – | – |
| C=C(C)C1CC2(C)C(C)CC(O)CC2C(OC(=O)C=C(C)C)C1O (stereo not drawn) | > 100 | 52 | – | > 100 | > 100 | > 100 | > 100 | > 100 | 51.9 | – | – | – | – | – | – | – | – | – | – | – |
| COc1cc(NS(=O)(=O)c2ccc(C)cc2)c2nccnc2c1 | > 100 | 80.8 | > 100 | – | 93.7 | 54.5 | > 100 | > 100 | > 100 | > 100 | – | – | – | – | – | – | – | – | – | – |
| O=C1C=C(Nc2ccccc2C(=O)CC(=O)C(=O)Nc2cccc([N+](=O)[O-])c2)c2ccccc2C1=O | > 100 | > 100 | > 100 | – | 88.6 | > 100 | 81.8 | > 100 | – | 87 | – | – | – | – | – | – | – | – | – | – |
| CCCC1(CC(=O)O)OCCc2c1[nH]c1ccccc21 (stereo not drawn) | > 100 | > 100 | > 100 | – | > 100 | > 100 | > 100 | > 100 | – | > 100 | – | – | – | – | – | – | – | – | – | – |
| CCCCCCCCn1ccc2cc(NC(=O)Cn3cc(CN4CCCCCC4)nn3)ccc21 | 3.36 | 3.11 | 3.14 | 3.47 | 3.37 | 3.6 | 3.26 | 3.46 | – | 3.33 | 1.77 | 1.73 | 1.64 | 1.74 | 1.8 | 1.93 | 1.67 | 1.8 | – | 1.73 |
| COC(=O)C(=O)CC(=O)CCn1[nH]c(=O)c(Cl)c(Cl)c1=O | > 100 | > 100 | > 100 | – | > 100 | > 100 | > 100 | > 100 | – | > 100 | – | – | – | – | – | – | – | – | – | – |
